Among the targets are Adenosine receptor A2a (Homo sapiens, UniProt P29274); Melanocortin receptor 4 (Homo sapiens, UniProt P32245); Motilin receptor (Homo sapiens, UniProt O43193); Vasopressin V2 receptor (Homo sapiens, UniProt P30518).
Data set [1] addresses T1, Neuropeptide Y receptor type 1 (Homo sapiens, UniProt P25929).
T1 sequence (P25929 whole entry): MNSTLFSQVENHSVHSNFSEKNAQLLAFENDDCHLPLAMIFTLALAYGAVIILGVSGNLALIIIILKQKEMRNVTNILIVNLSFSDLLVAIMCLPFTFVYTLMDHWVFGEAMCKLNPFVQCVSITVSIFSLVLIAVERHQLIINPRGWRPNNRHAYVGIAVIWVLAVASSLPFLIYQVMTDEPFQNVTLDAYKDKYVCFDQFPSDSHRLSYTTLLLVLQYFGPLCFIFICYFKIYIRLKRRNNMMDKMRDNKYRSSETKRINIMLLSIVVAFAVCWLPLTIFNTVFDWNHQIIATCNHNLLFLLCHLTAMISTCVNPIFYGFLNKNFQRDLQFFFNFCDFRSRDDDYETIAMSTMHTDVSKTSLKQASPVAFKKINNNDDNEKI

For data set [2], the target named is T2, Alpha-1A adrenergic receptor (Homo sapiens, UniProt P35348).
T2 sequence (P35348 whole entry): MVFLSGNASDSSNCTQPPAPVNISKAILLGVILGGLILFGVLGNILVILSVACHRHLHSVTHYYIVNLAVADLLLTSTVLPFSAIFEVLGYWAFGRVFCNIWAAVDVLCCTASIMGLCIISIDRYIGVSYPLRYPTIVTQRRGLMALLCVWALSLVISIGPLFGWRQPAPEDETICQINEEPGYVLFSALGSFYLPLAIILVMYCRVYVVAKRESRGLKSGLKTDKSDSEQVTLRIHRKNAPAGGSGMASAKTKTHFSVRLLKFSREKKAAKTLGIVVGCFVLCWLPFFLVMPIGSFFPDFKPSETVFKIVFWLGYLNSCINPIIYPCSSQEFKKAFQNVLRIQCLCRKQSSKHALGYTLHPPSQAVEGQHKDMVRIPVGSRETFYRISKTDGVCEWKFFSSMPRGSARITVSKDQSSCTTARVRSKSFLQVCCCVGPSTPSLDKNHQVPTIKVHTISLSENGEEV
The data set is classed as functional, cell-based.

Data set [3] deals with T3, Alpha-2A adrenergic receptor (Homo sapiens, UniProt P08913).
T3 sequence (P08913 whole entry): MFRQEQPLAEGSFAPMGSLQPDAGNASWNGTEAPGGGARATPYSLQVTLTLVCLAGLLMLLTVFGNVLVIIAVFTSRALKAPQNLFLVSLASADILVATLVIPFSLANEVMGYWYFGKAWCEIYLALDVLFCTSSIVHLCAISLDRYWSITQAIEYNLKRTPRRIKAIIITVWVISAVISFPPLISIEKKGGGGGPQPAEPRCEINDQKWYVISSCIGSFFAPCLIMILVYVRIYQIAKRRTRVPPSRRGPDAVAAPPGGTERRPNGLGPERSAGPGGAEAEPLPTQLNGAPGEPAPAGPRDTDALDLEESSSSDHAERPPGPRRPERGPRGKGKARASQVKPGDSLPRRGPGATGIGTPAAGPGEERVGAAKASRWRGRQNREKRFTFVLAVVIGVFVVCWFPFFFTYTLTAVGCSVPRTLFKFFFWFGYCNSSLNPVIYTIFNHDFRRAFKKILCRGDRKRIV
The data set is classed as functional, cell-based.

The target of data set [4] is Glutamate receptor ionotropic, NMDA 1 (Rattus norvegicus, UniProt P35439).
Data set [5] has as its target Voltage-gated inwardly rectifying potassium channel KCNH2 (Homo sapiens, UniProt Q12809). The data set is classed as functional.
Data set [6] addresses T4, 5-hydroxytryptamine receptor 1A (Homo sapiens, UniProt P08908).
T4 sequence (P08908 whole entry): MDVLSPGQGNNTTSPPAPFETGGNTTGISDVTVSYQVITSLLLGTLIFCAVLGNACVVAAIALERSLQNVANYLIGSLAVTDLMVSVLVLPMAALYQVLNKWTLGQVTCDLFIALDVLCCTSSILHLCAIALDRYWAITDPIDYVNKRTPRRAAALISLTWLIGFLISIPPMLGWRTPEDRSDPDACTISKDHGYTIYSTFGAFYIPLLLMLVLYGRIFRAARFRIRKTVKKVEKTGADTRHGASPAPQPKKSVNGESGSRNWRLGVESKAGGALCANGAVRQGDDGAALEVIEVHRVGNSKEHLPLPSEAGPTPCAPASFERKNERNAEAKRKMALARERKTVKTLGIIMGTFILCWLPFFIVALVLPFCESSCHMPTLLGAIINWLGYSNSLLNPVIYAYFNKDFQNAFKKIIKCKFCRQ
The data set is classed as functional, cell-based.

For data set [7], the target named is Beta-1 adrenergic receptor (Homo sapiens, UniProt P08588). The data set is classed as functional.
Data set [8] deals with Kappa-type opioid receptor (Homo sapiens, UniProt P41145).
For data set [9], the target named is T2, Alpha-1A adrenergic receptor.
In data set [10] the target is T5, Cannabinoid receptor 1 (Homo sapiens, UniProt P21554). It counts as functional, cell-based.
The target of data set [11] is Gamma-aminobutyric acid receptor subunit alpha-1 (Rattus norvegicus, UniProt P62813).
Data set [12] deals with T6, Equilibrative nucleoside transporter 1 (Homo sapiens, UniProt Q99808).
T6 sequence (Q99808 whole entry): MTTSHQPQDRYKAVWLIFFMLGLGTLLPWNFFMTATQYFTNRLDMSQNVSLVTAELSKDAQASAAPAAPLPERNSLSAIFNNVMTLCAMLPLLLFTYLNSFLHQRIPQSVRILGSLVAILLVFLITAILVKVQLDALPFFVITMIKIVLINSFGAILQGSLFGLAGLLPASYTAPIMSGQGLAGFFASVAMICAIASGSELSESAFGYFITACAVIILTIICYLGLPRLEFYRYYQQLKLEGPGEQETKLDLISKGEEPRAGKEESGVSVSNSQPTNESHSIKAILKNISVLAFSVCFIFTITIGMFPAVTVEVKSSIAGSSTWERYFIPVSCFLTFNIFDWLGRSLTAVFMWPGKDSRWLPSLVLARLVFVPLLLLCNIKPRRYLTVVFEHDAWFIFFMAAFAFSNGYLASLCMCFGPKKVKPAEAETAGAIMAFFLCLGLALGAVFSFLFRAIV

The target of data set [13] is T5, Cannabinoid receptor 1. It counts as functional, cell-based. The source holds these as a separate data set.

As a reminder, the AC50 is the concentration giving half of the maximal activity seen.
Also: assay procedure not described here.

Chain of Motilin receptor (O43193 whole entry): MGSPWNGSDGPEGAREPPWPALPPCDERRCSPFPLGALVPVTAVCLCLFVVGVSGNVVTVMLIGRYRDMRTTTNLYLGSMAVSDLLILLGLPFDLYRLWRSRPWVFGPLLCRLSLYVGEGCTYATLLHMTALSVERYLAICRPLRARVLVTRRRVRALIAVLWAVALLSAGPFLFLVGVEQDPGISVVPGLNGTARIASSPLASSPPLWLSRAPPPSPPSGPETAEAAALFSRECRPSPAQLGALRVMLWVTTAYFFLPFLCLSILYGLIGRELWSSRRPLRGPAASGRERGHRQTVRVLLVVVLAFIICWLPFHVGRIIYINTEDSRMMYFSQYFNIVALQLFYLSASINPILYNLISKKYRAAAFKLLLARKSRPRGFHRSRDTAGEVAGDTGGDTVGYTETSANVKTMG
Chain of Melanocortin receptor 4 (P32245 whole entry): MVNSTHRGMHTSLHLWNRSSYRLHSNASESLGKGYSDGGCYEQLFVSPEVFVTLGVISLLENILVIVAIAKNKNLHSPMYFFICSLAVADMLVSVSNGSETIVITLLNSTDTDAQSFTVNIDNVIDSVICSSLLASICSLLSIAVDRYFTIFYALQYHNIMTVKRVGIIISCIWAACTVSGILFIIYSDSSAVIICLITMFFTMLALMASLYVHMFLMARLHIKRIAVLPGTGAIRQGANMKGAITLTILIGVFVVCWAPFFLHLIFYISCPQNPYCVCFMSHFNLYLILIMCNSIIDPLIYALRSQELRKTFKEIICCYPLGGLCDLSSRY
Chain of Adenosine receptor A2a (P29274 whole entry): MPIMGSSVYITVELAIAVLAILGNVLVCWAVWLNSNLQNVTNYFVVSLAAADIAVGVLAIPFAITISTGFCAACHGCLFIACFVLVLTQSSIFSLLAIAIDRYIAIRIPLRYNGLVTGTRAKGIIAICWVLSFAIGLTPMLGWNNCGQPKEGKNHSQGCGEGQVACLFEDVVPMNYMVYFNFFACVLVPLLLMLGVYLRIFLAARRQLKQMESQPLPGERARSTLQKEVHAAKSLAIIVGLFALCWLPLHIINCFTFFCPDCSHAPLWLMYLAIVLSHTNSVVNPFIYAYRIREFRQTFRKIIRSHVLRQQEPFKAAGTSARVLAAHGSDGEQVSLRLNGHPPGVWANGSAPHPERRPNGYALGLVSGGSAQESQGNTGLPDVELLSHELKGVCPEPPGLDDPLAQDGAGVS
T5 sequence (P21554 whole entry): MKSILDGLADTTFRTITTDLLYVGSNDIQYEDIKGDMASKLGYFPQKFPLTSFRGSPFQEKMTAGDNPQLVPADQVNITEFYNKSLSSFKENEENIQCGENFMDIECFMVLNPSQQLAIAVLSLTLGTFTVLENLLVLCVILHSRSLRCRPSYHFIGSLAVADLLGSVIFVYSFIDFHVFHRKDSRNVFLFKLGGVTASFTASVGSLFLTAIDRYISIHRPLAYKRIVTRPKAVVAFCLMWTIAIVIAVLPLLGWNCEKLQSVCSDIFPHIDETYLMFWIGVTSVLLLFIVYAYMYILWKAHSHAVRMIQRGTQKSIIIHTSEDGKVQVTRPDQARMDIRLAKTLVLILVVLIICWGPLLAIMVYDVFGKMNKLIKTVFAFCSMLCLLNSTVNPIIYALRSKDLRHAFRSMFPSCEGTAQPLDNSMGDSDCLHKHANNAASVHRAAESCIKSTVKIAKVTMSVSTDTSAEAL
Chain of Voltage-gated inwardly rectifying potassium channel KCNH2 (Q12809 whole entry): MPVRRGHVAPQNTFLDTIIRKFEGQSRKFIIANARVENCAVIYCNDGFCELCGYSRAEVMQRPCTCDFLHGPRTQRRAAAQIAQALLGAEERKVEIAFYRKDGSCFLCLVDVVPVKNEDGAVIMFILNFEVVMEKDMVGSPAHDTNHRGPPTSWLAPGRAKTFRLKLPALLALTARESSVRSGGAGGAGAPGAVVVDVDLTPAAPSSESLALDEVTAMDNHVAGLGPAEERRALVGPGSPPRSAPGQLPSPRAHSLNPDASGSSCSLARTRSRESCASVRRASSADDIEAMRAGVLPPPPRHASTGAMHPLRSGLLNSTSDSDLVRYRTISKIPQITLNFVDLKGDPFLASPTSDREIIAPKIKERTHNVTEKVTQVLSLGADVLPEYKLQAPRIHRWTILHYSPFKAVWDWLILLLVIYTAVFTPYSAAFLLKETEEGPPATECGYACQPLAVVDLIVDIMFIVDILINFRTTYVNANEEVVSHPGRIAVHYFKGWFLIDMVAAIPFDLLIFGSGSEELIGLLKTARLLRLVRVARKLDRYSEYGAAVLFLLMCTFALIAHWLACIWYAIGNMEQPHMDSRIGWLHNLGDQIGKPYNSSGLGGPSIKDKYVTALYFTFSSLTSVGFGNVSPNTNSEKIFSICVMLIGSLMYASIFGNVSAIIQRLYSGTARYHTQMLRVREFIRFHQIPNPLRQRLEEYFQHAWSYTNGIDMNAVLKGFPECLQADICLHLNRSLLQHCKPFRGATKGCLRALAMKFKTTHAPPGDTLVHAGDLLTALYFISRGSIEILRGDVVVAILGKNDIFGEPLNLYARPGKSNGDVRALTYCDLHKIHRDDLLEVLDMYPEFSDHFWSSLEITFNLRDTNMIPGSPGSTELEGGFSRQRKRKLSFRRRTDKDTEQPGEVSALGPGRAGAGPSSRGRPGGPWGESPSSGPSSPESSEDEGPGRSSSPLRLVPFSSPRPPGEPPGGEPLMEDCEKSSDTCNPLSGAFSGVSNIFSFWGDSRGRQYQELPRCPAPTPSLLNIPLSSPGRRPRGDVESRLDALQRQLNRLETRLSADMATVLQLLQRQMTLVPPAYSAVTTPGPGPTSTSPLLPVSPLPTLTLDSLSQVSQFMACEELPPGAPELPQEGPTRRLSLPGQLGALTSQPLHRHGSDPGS
Chain of Kappa-type opioid receptor (P41145 whole entry): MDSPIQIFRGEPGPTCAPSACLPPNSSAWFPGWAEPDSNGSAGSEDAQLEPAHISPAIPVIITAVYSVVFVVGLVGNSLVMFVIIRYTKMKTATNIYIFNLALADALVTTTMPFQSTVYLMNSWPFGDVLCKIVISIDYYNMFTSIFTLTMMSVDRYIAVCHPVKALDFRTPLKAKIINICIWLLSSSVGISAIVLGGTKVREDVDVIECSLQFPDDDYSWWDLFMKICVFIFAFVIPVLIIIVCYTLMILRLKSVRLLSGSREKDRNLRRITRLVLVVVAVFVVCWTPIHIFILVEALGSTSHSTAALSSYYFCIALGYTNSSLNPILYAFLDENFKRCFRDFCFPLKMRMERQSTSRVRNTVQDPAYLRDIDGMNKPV
Chain of Beta-1 adrenergic receptor (P08588 whole entry): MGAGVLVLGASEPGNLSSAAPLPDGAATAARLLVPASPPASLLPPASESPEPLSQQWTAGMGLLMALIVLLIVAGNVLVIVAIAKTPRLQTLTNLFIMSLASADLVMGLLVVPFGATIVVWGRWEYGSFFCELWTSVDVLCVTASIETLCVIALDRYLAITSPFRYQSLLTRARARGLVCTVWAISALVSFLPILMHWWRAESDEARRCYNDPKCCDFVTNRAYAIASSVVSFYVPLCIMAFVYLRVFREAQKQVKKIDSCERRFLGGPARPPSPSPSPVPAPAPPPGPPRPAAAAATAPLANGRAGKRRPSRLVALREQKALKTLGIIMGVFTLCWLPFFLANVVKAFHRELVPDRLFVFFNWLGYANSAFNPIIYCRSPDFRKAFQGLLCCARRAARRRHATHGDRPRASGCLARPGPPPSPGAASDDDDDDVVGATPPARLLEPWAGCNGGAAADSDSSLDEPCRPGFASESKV
Chain of Gamma-aminobutyric acid receptor subunit alpha-1 (P62813 whole entry): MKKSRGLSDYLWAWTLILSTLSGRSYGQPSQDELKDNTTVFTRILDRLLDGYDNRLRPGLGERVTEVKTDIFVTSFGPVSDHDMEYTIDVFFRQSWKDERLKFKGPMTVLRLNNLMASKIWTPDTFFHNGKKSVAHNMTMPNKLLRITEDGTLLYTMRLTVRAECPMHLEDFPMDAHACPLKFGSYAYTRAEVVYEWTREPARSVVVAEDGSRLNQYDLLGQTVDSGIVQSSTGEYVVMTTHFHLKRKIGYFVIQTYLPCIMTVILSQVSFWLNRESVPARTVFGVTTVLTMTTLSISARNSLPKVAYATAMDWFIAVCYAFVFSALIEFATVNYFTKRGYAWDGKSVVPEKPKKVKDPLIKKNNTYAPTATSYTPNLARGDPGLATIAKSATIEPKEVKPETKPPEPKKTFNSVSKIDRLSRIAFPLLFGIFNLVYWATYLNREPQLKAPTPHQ

For the compound `O=C1CN=C(c2ccccc2Cl)c2cc([N+](=O)[O-])ccc2N1` [CLONAZEPAM], the concentration at half-maximal activity (AC50) in data set [1] is more than 30 µM; in [2] it was more than 30 µM; in [3], more than 10 µM; in data set [4] it was more than 10 µM; in data set [5] (read-out: AC50) it was more than 30 µM; in data set [6] it was more than 10 µM. In addition, the AC50 is more than 30 µM on Adenosine receptor A2a; more than 10 µM in [7]; more than 10 µM in data set [8]; 11.9 µM in data set [9]; more than 30 µM on Cannabinoid receptor 1 [10]; more than 10 µM in data set [11]. Besides, the half-maximal activity concentration (AC50) at Melanocortin receptor 4 is more than 30 µM; at Motilin receptor, more than 10 µM; in [12], more than 30 µM; on Vasopressin V2 receptor, more than 30 µM.
On to `CC(=O)N1CCN(c2ccc(OCC3COC(Cn4ccnc4)(c4ccc(Cl)cc4Cl)O3)cc2)CC1` (stereo not drawn) [KETOCONAZOLE], for which the AC50 in [1] was more than 10 µM; in [3] it was more than 10 µM; in data set [4], more than 10 µM; in data set [6] it was more than 10 µM; on Adenosine receptor A2a it was more than 30 µM; on Cannabinoid receptor 1 [13], more than 30 µM. In addition, the half-maximal activity concentration (AC50) in [7] was more than 10 µM; in data set [8] it was more than 10 µM; in data set [9] it was more than 10 µM; on Cannabinoid receptor 1 [10] it was more than 30 µM; in [11], more than 10 µM; on Melanocortin receptor 4, more than 10 µM. Moreover, the AC50 at Motilin receptor was more than 10 µM; in data set [12], 35.2 µM; on Vasopressin V2 receptor, more than 10 µM.
For the compound `CN1CCC(=C2c3ccccc3CC(=O)c3sccc32)CC1` [KETOTIFEN], the AC50 in data set [1] was more than 10 µM; in data set [2], more than 30 µM; in data set [3], more than 10 µM; in data set [4], more than 10 µM; in [5] (read-out: AC50), 1.5 µM; in [6], more than 10 µM. The half-maximal activity concentration (AC50) on Adenosine receptor A2a was more than 10 µM; at Cannabinoid receptor 1 [13] it was 16 µM; in data set [8], 5.38 µM; in data set [9], 10.4 µM; at Cannabinoid receptor 1 [10], more than 30 µM; in data set [11] it was more than 10 µM. In addition, the half-maximal activity concentration (AC50) (at Melanocortin receptor 4; on Motilin receptor; in data set [12]; at Vasopressin V2 receptor) was more than 10 µM throughout.
On to `OCC(CO)N[C@H]1C[C@](O)(CO)[C@@H](O)[C@H](O)[C@H]1O` [VOGLIBOSE], for which the concentration at half-maximal activity (AC50) in data set [1], in [2], in data set [3], in data set [4], in data set [5] (read-out: AC50) and in [6] was more than 30 µM in each case. The AC50 (on Adenosine receptor A2a; in data set [7]; in data set [8]; in [9]; in [11]; on Melanocortin receptor 4) was more than 30 µM throughout. In addition, the half-maximal activity concentration (AC50) (on Motilin receptor; in [12]; on Vasopressin V2 receptor) was more than 30 µM throughout.
With `CCN(C(C)=O)c1cccc(-c2ccnc3c(C#N)cnn23)c1` [ZALEPLON], the AC50 is more than 30 µM in [1]; more than 30 µM in data set [2]; more than 10 µM in data set [3]; more than 10 µM in data set [4]; more than 30 µM in [5] (read-out: AC50); more than 10 µM in [6]. Besides, the concentration at half-maximal activity (AC50) at Adenosine receptor A2a is more than 30 µM; on Cannabinoid receptor 1 [13], more than 30 µM; in data set [7] it was more than 30 µM; in data set [8], more than 10 µM; in data set [9], more than 10 µM; on Cannabinoid receptor 1 [10] it was more than 30 µM. The AC50 (at Melanocortin receptor 4; at Motilin receptor; in data set [12]; at Vasopressin V2 receptor) was more than 30 µM each time.
For TEPRENONE, the concentration at half-maximal activity (AC50) in data set [2] is more than 30 µM; in [3], more than 10 µM; in data set [4] it was more than 10 µM; in data set [5] (human, cellular components), more than 30 µM; in [6], more than 30 µM; on Adenosine receptor A2a it was more than 30 µM. Further, the AC50 on Cannabinoid receptor 1 [13] was more than 30 µM; in data set [7], more than 30 µM; in data set [8] it was 17 µM; in data set [9] it was more than 10 µM; on Cannabinoid receptor 1 [10] it was more than 30 µM; in data set [11], more than 10 µM. In addition, the half-maximal activity concentration (AC50) was more than 30 µM at Melanocortin receptor 4, more than 10 µM at Motilin receptor and more than 30 µM at Vasopressin V2 receptor.

Source of the values: ChEMBL document CHEMBL5291721, “A preclinical secondary pharmacology resource illuminates target-adverse drug reaction associations of marketed drugs” (Nat Commun, 2023).
